In PubChem BioAssay (NCI):
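Values below derive from 48-hour exposures of cells grown in 96-well plates, with endpoints linearly interpolated between the two concentrations bracketing the appropriate inhibition level. TGI: concentration producing complete growth inhibition.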

Tests used:
Test in all cases: DTP human tumour cell line panel, 48 h
ACHN renal = tested on: ACHN renal
COLO 205 colon = tested on: COLO 205 colon
DU-145 prostate = tested on: DU-145 prostate
EKVX NSCLC = tested on: EKVX NSCLC
HS 578T breast = tested on: HS 578T breast
IGROV1 ovarian = tested on: IGROV1 ovarian
MOLT-4 leukemia = tested on: MOLT-4 leukemia
NCI-H226 lung = tested on: NCI-H226 lung
NCI-H460 lung = tested on: NCI-H460 lung
OVCAR-4 ovarian = tested on: OVCAR-4 ovarian
OVCAR-5 ovarian = tested on: OVCAR-5 ovarian
PC-3 prostate = tested on: PC-3 prostate
SF-268 CNS = tested on: SF-268 CNS
SF-539 CNS = tested on: SF-539 CNS
SN12C renal = tested on: SN12C renal
SNB-75 CNS = tested on: SNB-75 CNS
T-47D breast = tested on: T-47D breast
UACC-62 melanoma = tested on: UACC-62 melanoma
RXF 393 renal = tested on: RXF 393 renal
SF-295 CNS = tested on: SF-295 CNS

Structure (SMILES)	TGI (ACHN renal)	TGI (COLO 205 colon)	TGI (DU-145 prostate)	TGI (EKVX NSCLC)	TGI (HS 578T breast)	TGI (IGROV1 ovarian)	TGI (MOLT-4 leukemia)	TGI (NCI-H226 lung)	TGI (NCI-H460 lung)	TGI (OVCAR-4 ovarian)	TGI (OVCAR-5 ovarian)	TGI (PC-3 prostate)	TGI (SF-268 CNS)	TGI (SF-539 CNS)	TGI (SN12C renal)	TGI (SNB-75 CNS)	TGI (T-47D breast)	TGI (UACC-62 melanoma)	TGI (RXF 393 renal)	TGI (SF-295 CNS)
O=C(CC(C(=O)c1cccs1)c1cccs1)c1ccsc1 (centres undefined)	> 100 µM	> 100 µM	> 100 µM	> 100 µM	> 100 µM	> 100 µM	> 100 µM	> 100 µM	> 100 µM	> 100 µM	> 100 µM	> 100 µM	> 100 µM	> 100 µM	> 100 µM	> 100 µM	> 100 µM	> 100 µM		
Oc1c(Cl)c(Cl)c(O)c(CCNc2ccc3ncccc3c2)c1Cl	28 µM	89.2 µM	60 µM	36 µM	13.1 µM	21 µM	> 100 µM		41.8 µM	> 100 µM	40.4 µM	> 100 µM	18.8 µM	39.4 µM	28.9 µM	33.4 µM	> 100 µM	23.8 µM	37.7 µM	24.1 µM
Cc1cc(C)c(S(=O)(=O)N2CCCN(S(=O)(=O)c3c(C)cc(C)cc3C)OCCCO2)c(C)c1	> 100 µM	> 100 µM	> 100 µM	> 100 µM	> 100 µM	> 100 µM	> 100 µM	> 100 µM	> 100 µM	> 100 µM	> 100 µM	> 100 µM	> 100 µM		> 100 µM	> 100 µM	> 100 µM	> 100 µM	> 100 µM	> 100 µM
CO[C@@H]1C[C@H]2[C@@H]3CC[C@H]([C@@H](C)CO)[C@@]3(C)CC[C@@H]2[C@@]2(C)CC[C@H]3C[C@]312	66.4 µM	31.4 µM	> 100 µM	> 100 µM	82.3 µM	> 100 µM	> 100 µM	59.9 µM	43.1 µM	> 100 µM	> 100 µM	57.3 µM	> 100 µM	> 100 µM	77.1 µM	> 100 µM	> 100 µM		45.6 µM	89.2 µM
CCCSc1ccc2[nH]c(/N=C/c3ccccc3)cc2c1	> 100 µM	44.5 µM	> 100 µM	76.2 µM	62.1 µM	> 100 µM	55.9 µM			88.2 µM	> 100 µM	> 100 µM	49.2 µM	46.3 µM	45.7 µM	> 100 µM	> 100 µM	35 µM	42.7 µM	
C/C(=N\n1c(Cc2ccccc2)n[nH]c1=O)c1ccccc1	> 100 µM	> 100 µM	> 100 µM	> 100 µM	> 100 µM	> 100 µM	> 100 µM	> 100 µM		> 100 µM	> 100 µM	> 100 µM	> 100 µM	> 100 µM	> 100 µM		> 100 µM	> 100 µM	> 100 µM	
O=S(CC1(O)CCCCC1)c1ccccc1 (centres undefined)	> 100 µM	> 100 µM	> 100 µM	> 100 µM	> 100 µM	> 100 µM	> 100 µM	> 100 µM	> 100 µM	> 100 µM	> 100 µM	> 100 µM	> 100 µM		> 100 µM	> 100 µM	> 100 µM	> 100 µM	> 100 µM	> 100 µM
CC1C/C(=C\c2ccc(OC(=O)C(C)(C)C)cc2)C(=O)/C(=C/c2ccc(OC(=O)C(C)(C)C)cc2)C1 (centres undefined)	> 100 µM	> 100 µM	> 100 µM	> 100 µM	> 100 µM	63.3 µM	37.7 µM	71 µM	> 100 µM	> 100 µM	> 100 µM	> 100 µM	> 100 µM	> 100 µM	> 100 µM		> 100 µM	> 100 µM	70.9 µM	> 100 µM
Cc1occc1C(=S)Nc1ccc(Cl)c(C(=O)OC(C(C)C)C(C)C)c1	24.9 µM	34.4 µM	32 µM	27.3 µM	48.5 µM	31.5 µM	23.1 µM	32.2 µM	31.6 µM	41.9 µM	57.2 µM	25.4 µM	45.1 µM	35 µM	30.9 µM		18.1 µM	25.7 µM	33.7 µM	18.5 µM
Cc1c(S(=O)(=O)O)ccc(N=Nc2c(O)c(C(=O)O)cc3ccccc23)c1Cl	> 100 µM	> 100 µM	> 100 µM	> 100 µM	> 100 µM	> 100 µM	> 100 µM	> 100 µM	> 100 µM	> 100 µM	> 100 µM	> 100 µM	> 100 µM		> 100 µM	> 100 µM	> 100 µM	> 100 µM	> 100 µM	> 100 µM
CN1C/C(=C\c2cccs2)C2=NN(C)C(c3cccs3)C2C1 (centres undefined)	> 100 µM	> 100 µM	> 100 µM	> 100 µM	> 100 µM	> 100 µM	> 100 µM	> 100 µM	> 100 µM	> 100 µM	> 100 µM	> 100 µM	> 100 µM		> 100 µM		> 100 µM	> 100 µM	> 100 µM	> 100 µM
CCOP(=O)(OCC)/C(=C/NC(=S)c1ccncc1)C(=O)OC	> 100 µM	> 100 µM	> 100 µM	> 100 µM	> 100 µM	> 100 µM	> 100 µM	> 100 µM	> 100 µM	> 100 µM	> 100 µM	> 100 µM	> 100 µM	> 100 µM	> 100 µM		> 100 µM	> 100 µM	> 100 µM	> 100 µM
Nc1nc2c(c(=O)[nH]1)C(c1ccccc1)CC(=O)N2 (centres undefined)	> 100 µM	> 100 µM	> 100 µM	> 100 µM	> 100 µM	> 100 µM	> 100 µM	> 100 µM	> 100 µM	> 100 µM	> 100 µM	> 100 µM	> 100 µM	> 100 µM	> 100 µM	> 100 µM	> 100 µM	> 100 µM		> 100 µM
COc1cc(/C=C2\N=C(c3ccccc3)N(c3nc4cc(C)c(C)cc4s3)C2=O)ccc1O	> 100 µM	> 100 µM	> 100 µM	> 100 µM	> 100 µM	> 100 µM	> 100 µM		> 100 µM	> 100 µM	> 100 µM	> 100 µM	> 100 µM	60.9 µM	78.9 µM	> 100 µM	> 100 µM	> 100 µM	82.2 µM	> 100 µM
COC(=O)c1ccc(NC(=O)O/N=C(\Cl)C(C)C)cc1	3.16 µM	3.72 µM	35.1 µM	10.9 µM	> 66.7 µM	27.6 µM	6 µM	> 53.6 µM	41.2 µM	32 µM	32.8 µM	31.1 µM	> 78.1 µM		13.9 µM	26.3 µM	5.02 µM	27 µM	19.6 µM	33.3 µM
CN=c1c2c(c3[nH]c4ccccc4c4cnc1c34)NCCC2=O	> 10 µM	> 10 µM	> 10 µM	> 10 µM	> 10 µM	> 10 µM	> 10 µM	> 10 µM	> 10 µM	> 10 µM	> 10 µM	> 10 µM	> 10 µM	> 10 µM	> 10 µM	> 10 µM	> 10 µM		> 10 µM	> 10 µM
COc1cccc(C2c3cc4c(cc3OC(N3CCOCC3)C2C)OCO4)c1OC (centres undefined)	70.9 µM	28.2 µM	28.5 µM	> 100 µM	63.5 µM	31.2 µM	20 µM		30.7 µM		43.6 µM	40.6 µM	92.2 µM	30.5 µM	48.4 µM	37.2 µM	79.1 µM	85.5 µM		32.9 µM
COc1ccc2nccc(SCC(=O)O)c2c1	> 100 µM		> 100 µM	> 100 µM	> 100 µM	> 100 µM	> 100 µM	> 100 µM	> 100 µM	> 100 µM	> 100 µM	> 100 µM	> 100 µM		> 100 µM		> 100 µM	> 100 µM	> 100 µM	> 100 µM
O=C1/C(=C/c2ccc(OC(=O)c3ccccc3)cc2)CCC/C1=C\c1ccc(OC(=O)c2ccccc2)cc1	> 100 µM	> 100 µM	> 100 µM	> 100 µM	> 100 µM	> 100 µM	> 100 µM		> 100 µM	> 100 µM	> 100 µM	> 100 µM	> 100 µM	> 100 µM	> 100 µM	> 100 µM	> 100 µM	> 100 µM		> 100 µM
CC1(C)CC2=C(Sc3ccccc3N2)C(=O)C1C(=O)C(=O)Nc1cccc([N+](=O)[O-])c1 (centres undefined)	> 100 µM	> 100 µM	> 100 µM	> 100 µM	> 100 µM	> 100 µM	> 100 µM	> 100 µM	> 100 µM	> 100 µM	> 100 µM	> 100 µM	> 100 µM	> 100 µM	> 100 µM	> 100 µM	> 100 µM	> 100 µM		> 100 µM
CSC1=Nc2ccccc2-c2nc3ccccc3cc2C1	> 100 µM	> 100 µM	> 100 µM	> 100 µM	> 100 µM	> 100 µM	> 100 µM	> 100 µM	> 100 µM	> 100 µM	> 100 µM	> 100 µM	> 100 µM	> 100 µM	> 100 µM		> 100 µM	> 100 µM	> 100 µM	> 100 µM
COc1cc(S(=O)(=O)Nc2nc(-c3ccc(N4C(=O)/C(=C/C=C/c5ccccc5)N=C4c4ccccc4)cc3)cs2)ccc1Cl	> 100 µM	> 100 µM	> 100 µM		> 100 µM	> 100 µM	> 100 µM	> 100 µM	> 100 µM	> 100 µM	> 100 µM	> 100 µM	> 100 µM	> 100 µM	> 100 µM	> 100 µM	> 100 µM	> 100 µM	> 100 µM	> 100 µM
CCCCCCCCCCCCN1[C@H]2CCC[C@H]2C(O)[C@@H]2CCC[C@@H]21 (some centres undefined)	> 100 µM	> 100 µM	> 100 µM		> 100 µM	> 100 µM	> 100 µM	> 100 µM	> 100 µM	> 100 µM	> 100 µM	> 100 µM	> 100 µM		> 100 µM	> 100 µM	88.2 µM	> 100 µM	> 100 µM	
Cc1cccc(C)c1NC(=O)C(=O)CC(=O)/C=C/c1ccccc1	> 100 µM			> 100 µM	> 100 µM	> 100 µM	> 100 µM	> 100 µM	> 100 µM	> 100 µM	> 100 µM	> 100 µM	> 100 µM	> 100 µM	> 100 µM	> 100 µM	> 100 µM	> 100 µM	> 100 µM	> 100 µM
COc1ccc(S(=O)(=O)NC(CCC(=O)NN)C(=O)NN)cc1 (centres undefined)	> 100 µM	> 100 µM	> 100 µM	> 100 µM	> 100 µM	> 100 µM	> 100 µM		> 100 µM	> 100 µM	> 100 µM	> 100 µM		> 100 µM	> 100 µM	> 100 µM	> 100 µM	> 100 µM		> 100 µM
